# According to patent publication US20230330053A1, “METHOD FOR TREATING INFECTIONS” (priority 2020, published 2023):
# Entries after “also recorded” stand apart in the source; their conditions may differ.
# Legend:
# [1] = test system: SARS-CoV-2 (USA-WA1/2020 strain); assay: Direct injection into SARS-CoV-2 viral suspension, plaque assay on Vero E6 cells; type: cell-based; conditions: for Effect on viral burden at the lower volumes: formula 2 and 5 μls, or corresponding propionic acid 1.4 and 3.9 μls, isoamyl hexanoates 0.6 and 1.1 μls
# SARS-CoV-2 = assay: Sx direct injection into SARS-CoV-2 suspension in MEM, Vero E6 plaque assay; type: cell-based
# [2] = biological target: receptor binding domain (RBD) of the SARS-CoV-2 spike protein to ACE2 (Severe acute respiratory syndrome coronavirus 2, UniProt P0DTC2); conditions: cited from earlier work
molecule,measurement,setting,value
CCC(=O)O [propionic acid],Decline in viral burden after 360 mins post-addition,"[1]; 37° C., 1.4 μls alone",0.29 log10 PFU/ml
same,Decline in viral burden after 360 mins post-addition,"[1]; 37° C., 3.9 μls alone",0.98 log10 PFU/ml
same,Effect on viral burden at the lower volumes,[1],minimal reduction of viral burden
same,Volume necessary for a relative immediate inactivation of the virus,SARS-CoV-2; acid alone,at least 15.4 μL
same,Volume necessary to get any appreciable activity,SARS-CoV-2; acid alone,up to 7.7 μL
GluGluLeuGlu,Reduction of activity on adding peptide to the virus,[2],34%
isoamyl hexanoates,Suppression of SARS-CoV-2 by the component alone,"[1]; 37° C., all treatment arms",substantially less effective
same,Effect on viral burden at the lower volumes,[1],minimal reduction of viral burden
same,Reduction in activity of the virus,"SARS-CoV-2; 1.1 μL alone, at about 100 min",~1 log
same,Virus activity after 300 min relative to control,SARS-CoV-2; esters alone,about equaled that of the control; also recorded: approximately equaled that of the control
same,General reduction in virus activity within about 30 min,"SARS-CoV-2; esters alone, over the range of concentrations tested",~1 log
same,Reduction in activity over the course of 300 minutes,SARS-CoV-2; highest concentration of 4.6 μL alone,1 order of magnitude
